By pEC50 is commonly meant −log10 of the EC50, conventionally taken in molar units.

The values below come from US20230144824A1, “1H-PYRAZOLO[4,3-d]PYRIMIDINE COMPOUNDS AS TOLL-LIKE RECEPTOR 7 (TLR7) AGONISTS” (BRISTOL-MYERS SQUIBB COMPANY, priority 2020, published 2023).

pEC50: −log10 of the molar value.

Assay [1] deals with T1, human TLR7 (Homo sapiens, UniProt Q9NYK1).
T1 construct: host or cells: HEK-Blue TLR7 cells (engineered human embryonic kidney cells)
T1 sequence (Q9NYK1 27-1049): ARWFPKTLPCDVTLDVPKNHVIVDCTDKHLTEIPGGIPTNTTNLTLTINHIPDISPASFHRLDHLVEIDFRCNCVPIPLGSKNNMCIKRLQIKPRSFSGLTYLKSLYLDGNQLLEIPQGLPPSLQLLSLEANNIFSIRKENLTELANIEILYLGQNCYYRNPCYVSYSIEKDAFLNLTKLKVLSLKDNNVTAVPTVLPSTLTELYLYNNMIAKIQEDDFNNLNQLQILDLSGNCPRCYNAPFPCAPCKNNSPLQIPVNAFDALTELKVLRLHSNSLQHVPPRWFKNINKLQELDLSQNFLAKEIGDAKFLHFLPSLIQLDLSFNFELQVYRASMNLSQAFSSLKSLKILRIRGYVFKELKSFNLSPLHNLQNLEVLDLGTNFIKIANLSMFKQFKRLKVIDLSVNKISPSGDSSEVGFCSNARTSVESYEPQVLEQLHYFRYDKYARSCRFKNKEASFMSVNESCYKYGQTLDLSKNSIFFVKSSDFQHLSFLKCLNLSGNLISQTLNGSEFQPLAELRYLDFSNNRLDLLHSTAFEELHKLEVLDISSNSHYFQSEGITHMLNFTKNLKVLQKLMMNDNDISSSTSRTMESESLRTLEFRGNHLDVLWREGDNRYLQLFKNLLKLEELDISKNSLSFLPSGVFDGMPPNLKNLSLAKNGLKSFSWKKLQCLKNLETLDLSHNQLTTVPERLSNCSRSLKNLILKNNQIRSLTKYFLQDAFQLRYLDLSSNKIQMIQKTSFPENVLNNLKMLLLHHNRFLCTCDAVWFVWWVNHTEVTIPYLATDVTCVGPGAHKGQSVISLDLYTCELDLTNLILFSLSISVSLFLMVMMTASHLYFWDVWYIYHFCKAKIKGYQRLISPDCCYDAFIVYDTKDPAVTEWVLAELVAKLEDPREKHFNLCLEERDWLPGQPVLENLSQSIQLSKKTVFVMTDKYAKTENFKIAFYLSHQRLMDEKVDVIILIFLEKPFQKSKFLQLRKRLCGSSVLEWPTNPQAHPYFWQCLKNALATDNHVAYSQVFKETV
As to the kind of experiment: Human TLR7 agonist activity assay (HEK-Blue TLR7 SEAP reporter). Type of assay: cell-based. Conditions: HEK-Blue TLR7 cells, 18 h treatment, average where assay performed multiple times, read-out: hTLR7 Agonism EC50. In outline:
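HEK-Blue TLR7 cells (15,000/well) treated with compound for 18 h at 37 °C, 5% CO2. Secreted SEAP measured with Quanti-Blue, 30 min, OD 620 nm. EC50 taken as concentration giving half-maximal response between baseline and maximum.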

The test system of assay [2] is CD69. Briefly: Induction of CD69 in human whole blood. In kind it is cell-based. As to conditions: Homo sapiens, 17 h, 100% set to 1 uM of resiquimod, average where assay performed multiple times, read-out: hWB CD69 EC50. In outline: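 Heparinized human whole blood treated with TLR7 agonist at final 1 uM and incubated 17 h at 37° C. CD69 surface staining alongside CD14 and CD19, then fix/lysis and flow cytometry on iQuePlus. Curves fitted with 1 uM resiquimod set as 100%.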

As to `CCC[C@@H](CCO)Nc1nc(N)nc2cnn(Cc3ncc(C4C[C@@H](C#N)CN4)cc3OC)c12` (mixture of isomers) [Compound 185, (3R)-5-{6-[(5-amino-7-{[(3S)-1-hydroxyhexan-3-yl]amino}-1H-pyrazolo[4,3-d]pyrimidin-1-yl)methyl]-5-methoxypyridin-3-yl}pyrrolidine-3-carbonitrile], the pEC50 in assay [1] is 6.40; in assay [2], 7.56.
Consider `CCCCNc1nc(N)nc2cnn(Cc3ncc(C4CCN(C)CC4)cc3OC)c12` [Compound 111, N7-butyl-1-{[3-methoxy-5-(1-methylpiperidin-4-yl)pyridin-2-yl]methyl}-1H-pyrazolo[4,3-d]pyrimidine-5,7-diamine], for which the pEC50 in assay [1] was 7.19; in assay [2] it was 8.27.
For `CCCCNc1nc(N)nc2cnn(Cc3ncc(C4CCN(C(=O)CC(C)(C)O)CC4)cc3OC)c12` [Compound 110, 1-[4-(6-{[5-amino-7-(butylamino)-1H-pyrazolo[4,3-d]pyrimidin-1-yl]methyl}-5-methoxypyridin-3-yl)piperidin-1-yl]-3-hydroxy-3-methylbutan-1-one] the same measures were 6.46 and 6.42.
The corresponding values for `COc1cc(C2CCN(C(=O)CCN(C)C)CC2)cnc1Cn1ncc2nc(N)nc(NCc3cc(C)on3)c21` [Compound 140, 1-(4-{6-[(5-amino-7-{[(5-methyl-1,2-oxazol-3-yl)methyl]amino}-1H-pyrazolo[4,3-d]pyrimidin-1-yl)methyl]-5-methoxypyridin-3-yl}piperidin-1-yl)-3-(dimethylamino)propan-1-one] are 6.28 and 6.89.
The corresponding values for `CCC[C@@H](CCO)Nc1nc(N)nc2cnn(Cc3ccc(C4CN(C(C)C)CCN4)cc3OC)c12` (stereo partly drawn) [Compound 182, (3S)-3-{[5-amino-1-({2-methoxy-4-[4-(propan-2-yl)piperazin-2-yl]phenyl}methyl)-1H-pyrazolo[4,3-d]pyrimidin-7-yl]amino}hexan-1-ol] are 8.17 and 9.55.
As to `CCCCNc1nc(N)nc2cnn(Cc3ncc(C4CCN(C5COC5)CC4)cc3OC)c12` [Compound 102, N7-butyl-1-({3-methoxy-5-[1-(oxetan-3-yl)piperidin-4-yl]pyridin-2-yl}methyl)-1H-pyrazolo[4,3-d]pyrimidine-5,7-diamine], the negative-log EC50 (pEC50) is 6.92 in assay [1] and 7.06 in assay [2].
For `CCCCNc1nc(N)nc2cnn(Cc3ncc(C4CCN(CC(C)(C)O)CC4)cc3OC)c12` [Compound 146, 1-[4-(6-{[5-amino-7-(butylamino)-1H-pyrazolo[4,3-d]pyrimidin-1-yl]methyl}-5-methoxypyridin-3-yl)piperidin-1-yl]-2-methylpropan-2-ol] the same measures were 7.55 and 7.59.
The corresponding values for `CCCCNc1nc(N)nc2cnn(Cc3cc(F)c(N4CCN(C(=O)CNC5CCOCC5)CC4)cc3OC)c12` [Compound 195, 1-[4-(4-{[5-amino-7-(butylamino)-1H-pyrazolo[4,3-d]pyrimidin-1-yl]methyl}-2-fluoro-5-methoxyphenyl)piperazin-1-yl]-2-[(oxan-4-yl)amino]ethan-1-one] are 7.27 and 6.89.
The corresponding values for `CCCCNc1nc(N)nc2cnn(Cc3ncc(C4CCN(S(C)(=O)=O)CC4)cc3OC)c12` [Compound 103, N7-butyl-1-{[5-(1-methanesulfonylpiperidin-4-yl)-3-methoxypyridin-2-yl]methyl}-1H-pyrazolo[4,3-d]pyrimidine-5,7-diamine] are 6.69 and 6.25.
`CCC[C@@H](CCO)Nc1nc(N)nc2cnn(Cc3ccc(C4CNCCN4)cc3OC)c12` (stereo partly drawn) [Compound 180, (3S)-3-[(5-amino-1-{[2-methoxy-4-(piperazin-2-yl)phenyl]methyl}-1H-pyrazolo[4,3-d]pyrimidin-7-yl)amino]hexan-1-ol]: the results for the pEC50 in assay [1] and in assay [2] were 7.17 and 8.14, respectively.
The corresponding values for `COc1cc(C2CCN(CCO)CC2)cnc1Cn1ncc2nc(N)nc(NCc3cc(C)on3)c21` [Compound 144, 2-(4-{6-[(5-amino-7-{[(5-methyl-1,2-oxazol-3-yl)methyl]amino}-1H-pyrazolo[4,3-d]pyrimidin-1-yl)methyl]-5-methoxypyridin-3-yl}piperidin-1-yl)ethan-1-ol] are 7.11 and 8.06.
For `CCCCNc1nc(N)nc2cnn(Cc3ncc(C4CCN(C5CNC5)CC4)cc3OC)c12` [Compound 115, 1-({5-[1-(azetidin-3-yl)piperidin-4-yl]-3-methoxypyridin-2-yl}methyl)-N7-butyl-1H-pyrazolo[4,3-d]pyrimidine-5,7-diamine] the same measures were 6.35 and 7.19.
For `CCC[C@@H](CCO)Nc1nc(N)nc2cnn(Cc3cnc(C4CCN(C)CC4)cc3OC)c12` [Compound 174, (3S)-3-[(5-amino-1-{[4-methoxy-6-(1-methylpiperidin-4-yl)pyridin-3-yl]methyl}-1H-pyrazolo[4,3-d]pyrimidin-7-yl)amino]hexan-1-ol] the same measures were 7.96 and 8.54.
As to `CCCCNc1nc(N)nc2cnn(Cc3ncc(C4CCN(C(C)C)CC4)cc3OC)c12` [Compound 113, N7-butyl-1-({3-methoxy-5-[1-(propan-2-yl)piperidin-4-yl]pyridin-2-yl}methyl)-1H-pyrazolo[4,3-d]pyrimidine-5,7-diamine], the results for the pEC50 in assay [1] and in assay [2] were 7.33 and 8.03, respectively.
For `CCCCNc1nc(N)nc2c(C)nn(Cc3ncc(C4CCNCC4)cc3OC)c12` [Compound 106, N7-butyl-1-{[3-methoxy-5-(piperidin-4-yl)pyridin-2-yl]methyl}-3-methyl-1H-pyrazolo[4,3-d]pyrimidine-5,7-diamine] the same measures were 6.26 and 6.82.
The corresponding values for `CCCCNc1nc(N)nc2cnn(Cc3cc(F)c(N4CCN(C(=O)CN5CC(OC)C5)CC4)cc3OC)c12` [Compound 194, 1-[4-(4-{[5-amino-7-(butylamino)-1H-pyrazolo[4,3-d]pyrimidin-1-yl]methyl}-2-fluoro-5-methoxyphenyl)piperazin-1-yl]-2-(3-methoxyazetidin-1-yl)ethan-1-one] are 7.20 and 7.43.
Turning to `CCCCNc1nc(N)nc2cnn(Cc3ccc(C4CCN(C)CC4)cc3OC)c12` [Compound 163, N7-butyl-1-{[2-methoxy-4-(1-methylpiperidin-4-yl)phenyl]methyl}-1H-pyrazolo[4,3-d]pyrimidine-5,7-diamine], the figures for the pEC50 in assay [1] and in assay [2] were 8.30 and 10.19, respectively.
Regarding `CCCCNc1nc(N)nc2cnn(Cc3ncc(C4CCN(CC(N)=O)CC4)cc3OC)c12` [Compound 119, 2-[4-(6-{[5-amino-7-(butylamino)-1H-pyrazolo[4,3-d]pyrimidin-1-yl]methyl}-5-methoxypyridin-3-yl)piperidin-1-yl]acetamide], the pEC50 was 6.78 in assay [1] and 8.29 in assay [2].
The corresponding values for `CCC[C@@H](CCO)Nc1nc(N)nc2cnn(Cc3nc(C4CCN(C)CC4)ccc3OC)c12` [Compound 191, (3S)-3-[(5-amino-1-{[3-methoxy-6-(1-methylpiperidin-4-yl)pyridin-2-yl]methyl}-1H-pyrazolo[4,3-d]pyrimidin-7-yl)amino]hexan-1-ol] are 6.66 and 7.45.
For `CCCCNc1nc(N)nc2c(C3CC3)nn(Cc3ncc(C4CCN(C)CC4)cc3OC)c12` [Compound 107, N7-butyl-3-cyclopropyl-1-{[3-methoxy-5-(1-methylpiperidin-4-yl)pyridin-2-yl]methyl}-1H-pyrazolo[4,3-d]pyrimidine-5,7-diamine] the same measures were 6.42 and 6.35.
For `COc1cc(C2CCN(C3CC4(COC4)C3)CC2)cnc1Cn1ncc2nc(N)nc(NCC3CC4(CC4)C3)c21` (stereo not drawn) [Compound 154, 1-{[3-methoxy-5-(1-{2-oxaspiro[3.3]heptan-6-yl}piperidin-4-yl)pyridin-2-yl]methyl}-N7-({spiro[2.3]hexan-5-yl}methyl)-1H-pyrazolo[4,3-d]pyrimidine-5,7-diamine] the same measures were 7.47 and 8.15.
